Results on 3 compounds are retold here after article PMC11053098, “Unravelling and reconstructing the biosynthetic pathway of bergenin” (Nature Communications, 2024).

One assay has as its system T1, AjOMT2.
T1 construct: cloned in pET28a (BamHI/EcoRI), E. coli Transetta (DE3), Ni-NTA purified
Nature of the assay: HPLC methyltransferase assay. Particulars: co-substrate SAM; metal-dependent (Mg2+); details in Supplementary Methods 5-7; read-out: apparent Km. It is filed as biochemical, Ardisia japonica.

Another assay concerns T2, AjCGT1.
T2 construct: full-length cDNA in pET28a (BamHI/EcoRI), E. coli Transetta (DE3), Ni-NTA purified
As to the kind of experiment: HPLC glycosyltransferase assay. It is filed as biochemical, Ardisia japonica. Particulars: co-substrate UDP-Glc; details in Supplementary Methods 5-7; substrate unstable in buffer; read-out: apparent Km.

As a reminder, the Km is the concentration of substrate that gives half-maximal velocity. For `O=C(O)c1cc(O)c(O)c(O)c1` [compound 2, GA], the Km in the assay with AjOMT2 turned out to be 72 µM.

Take `COc1c(O)cc(C(=O)O)cc1O` [compound 3, 4-OMGA]: in the assay with AjCGT1, the Km amounted to 265 µM.

For the compound `O=C1O[C@@H]2[C@@H](O)[C@H](O)[C@@H](CO)O[C@H]2c2c1cc(O)c(O)c2O` [compound 6, norbergenin], in the assay with AjOMT2, the Km is 494 µM.
